Reference: patent US20210128702A1 (priority 2017, published 2021)

What was measured:
Assay type in all cases: cell-based
4 MM cell lines = test system: 4 MM cell lines
[1] = test system: Non-MM, bone marrow cells (CD138−)
MM.1S cells [2] = test system: MM.1S cells
MM.1S cells [3] = test system: MM.1S cells; remark: listed apart in the source
U266 cells = test system: U266 cells

What does the source list for `CC(C)C[C@H](NC(=O)[C@H](Cc1ccccc1)NC(=O)c1cnccn1)B(O)O` [bortezomib]?
polyUb protein fluorescence (proteotoxicity) (4 MM cell lines): increased fluorescence in all cell lines; polyUb proteins accumulation [1]: only modest polyUb proteins accumulation

What does the source list for `C[C@@H]1C[C@@H]([C@H](O)CC2CC(=O)NC(=O)C2)C(=O)[C@@H](C)C1` [cycloheximide]?
effect on polyUb (MM.1S cells [2]): decreases polyUb; effect on bortezomib-induced apoptosis (MM.1S cells [3]): decreased bortezomib-induced apoptosis

For tunicamycin, which “sensitization to Btz-induced apoptosis” value (U266 cells) is on record?
The value was “sensitizes U266 cells to Btz-induced apoptosis”.
